Read-outs that look alike come from different tables or passages of the source.
Experiments:
zebrafish embryo = test: Antimelanogenesis effect in zebrafish embryos (melanin content by ImageJ); assay type: in vivo, zebrafish (Danio rerio); settings: for IC50: Danio rerio, read-out: IC50 of melanogenesis inhibition activity in zebrafish; for effect on melanogenesis of zebrafish: concentration 50 μM
Description: Zebrafish (Danio rerio) of wild-type AB strain were maintained in a healthy aquatic environment at 26–30 °C, with a 14:10 h light–dark cycle. After 9 h post fertilization (hpf), embryos were placed into a 24-well plate (3 embryos per well), treated with various final concentrations of specimens dissolved in 1% DMSO, and incubated at 28 °C for 48 h (at 57 hpf). The digital image of live zebrafish embryo was taken through a stereomicroscope (Olympus SZ61, Tokyo, Japan) at a total magnification of 40×; then, the melanin content of zebrafish embryo was analyzed by the ImageJ software. […] The number of replications was six.

mushroom tyrosinase = test: Enzyme kinetic study (Lineweaver–Burk plot); assay type: biochemical; settings: for Potential (trend of Vmax with concentration): 0-100 μg/mL; for Inhibition Type: L-tyrosine and L-DOPA substrates, Lineweaver–Burk
Description: Enzyme kinetic study is analyzed by the Lineweaver–Burk reciprocal plot of the reaction rate and the concentration of the substrate to evaluate the effect of the specimen on the affinity of the substrate and enzyme. […] The reaction was similar to antityrosinase assay as described above; 40 µL of specimen solution and 70 µL of potassium phosphate buffer (0.1 M, pH 6.8) were mixed, which was followed by adding 50 µL of 200 unit/mL tyrosinase, after incubation at 25 °C for 10 min.

[1] = embryos treated 9 hpf to 57 hpf (48 h)

SMILES	IC50 (zebrafish embryo; [1]) [µM]	effect on melanogenesis of zebrafish (zebrafish embryo)	Potential (trend of Vmax with concentration) (mushroom tyrosinase; L-DOPA substrate)	Potential (trend of Vmax with concentration) (mushroom tyrosinase; L-Tyrosine substrate)	Inhibition Type (mushroom tyrosinase)	IC50 (zebrafish embryo; 48 h) [µM]	Inhibition Type (mushroom tyrosinase; listed as gallic acid)	IC50 (zebrafish embryo; embryos treated 9 hpf to 57 hpf (48 h), dash defined in footnote) [µM]	Inhibition Type (mushroom tyrosinase; listed as mearnsetin)
OC[C@H]1O[C@@H](Oc2ccc(O)cc2)[C@H](O)[C@@H](O)[C@@H]1O [Arbutin, arbutin, reference compound]	324 ± 19.8	could reduce the melanin formation							
O=c1c(O)c(-c2cc(O)c(O)c(O)c2)oc2cc(O)cc(O)c12 [Myricetin]	350 ± 42.7	slight melanin inhibition effect	↓	↓	mixed-type inhibitor				
NC(=S)Nc1ccccc1 [PTU, 1-phenyl-2-thiourea, reference compound]		could reduce the melanin formation				26.3 ± 4.17			
O=C(O)c1cc(O)c(O)c(O)c1 [Gallic acid]			―	―	Competitive		competitive inhibitor	> 400	
COc1c(O)cc(-c2oc3cc(O)cc(O)c3c(=O)c2O)cc1O [Mearnsetin, 4′-O-methyl myricetin]	121 ± 0.96	better melanogenesis inhibition activity	―	―	Competitive				competitive inhibitor

Reference: publication PMC8309042, “Antimelanogenesis Effects of Leaf Extract and Phytochemicals from Ceylon Olive (Elaeocarpus serratus) in Zebrafish Model” (Pharmaceutics, 2021)
